Values of other authors, collected in publication PMC3404106, “Pharmacology of DB844, an Orally Active aza Analogue of Pafuramidine, in a Monkey Model of Second Stage Human African Trypanosomiasis” (PLoS Neglected Tropical Diseases, 2012).

System: GVR35 CNS model of HAT
Design: method as in PMID 19620327
Details: cited from earlier work

CONC(=N)c1ccc(-c2ccc(-c3ccc(C(=N)NOC)cn3)o2)cc1 [DB844, N-methoxy-6-{5-[4-(N-methoxyamidino)phenyl]-furan-2-yl}-nicotinamidine]
cure of 2nd stage experimental murine HAT infection (DB844 at 100 mg/kg): curative | animals cured (mice, oral DB844 (100 mg/kg×5 days)): 5/5
